Laboratory results: patent US20240018161A1, “MODULATORS OF CYSTIC FIBROSIS TRANSMEMBRANE CONDUCTANCE REGULATOR” (VERTEX PHARMACEUTICALS INCORPORATED, priority 2020, published 2024)
Where two headings read alike, the source gives them in different places. One block for each molecule: values may come before it.

How the values were obtained:
[1] = 13-membered ring, DMF
[2] = 13-membered ring, DMF; remark: listed apart in the source
[3] = molecular target: T1, CFTR-mediated chloride transport in human intestinal epithelial enteroid cells (Homo sapiens, UniProt P13569); experiment: Membrane potential dye, Enteroid Assay B; assay type: cell-based; conditions: Enteroid Assay B; for EC50: read-out: Ent. B EC50
Outline: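 After dye loading (20 μM methyl oxonol with 30 μM CaCCinh-A01 and 30 μM Chicago Sky Blue, 25 min at room temperature), enteroid cells were exchanged into chloride-free buffer. Fluorescence was recorded for 15 min after adding stimulation solution to drive CFTR-mediated chloride transport.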

[4] = molecular target: T1, CFTR-mediated chloride transport in human intestinal epithelial enteroid cells; experiment: Membrane potential dye, Enteroid Assay A; assay type: cell-based; conditions: Enteroid Assay A; for EC50: read-out: Ent. A EC50
Outline: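 Membrane potential dye (20 μM methyl oxonol, with 30 μM CaCCinh-A01 and 30 μM Chicago Sky Blue) loaded 25 min at room temperature into ROCK-inhibitor-seeded human enteroid cells. Chloride-free stimulation buffer triggered transport, followed by 15 min fluorescence. % Activity relative to 3 μM/3 μM/300 nM triple-combination control.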

T1 sequence (P13569 with tags, fused parts or gaps DEL508-508): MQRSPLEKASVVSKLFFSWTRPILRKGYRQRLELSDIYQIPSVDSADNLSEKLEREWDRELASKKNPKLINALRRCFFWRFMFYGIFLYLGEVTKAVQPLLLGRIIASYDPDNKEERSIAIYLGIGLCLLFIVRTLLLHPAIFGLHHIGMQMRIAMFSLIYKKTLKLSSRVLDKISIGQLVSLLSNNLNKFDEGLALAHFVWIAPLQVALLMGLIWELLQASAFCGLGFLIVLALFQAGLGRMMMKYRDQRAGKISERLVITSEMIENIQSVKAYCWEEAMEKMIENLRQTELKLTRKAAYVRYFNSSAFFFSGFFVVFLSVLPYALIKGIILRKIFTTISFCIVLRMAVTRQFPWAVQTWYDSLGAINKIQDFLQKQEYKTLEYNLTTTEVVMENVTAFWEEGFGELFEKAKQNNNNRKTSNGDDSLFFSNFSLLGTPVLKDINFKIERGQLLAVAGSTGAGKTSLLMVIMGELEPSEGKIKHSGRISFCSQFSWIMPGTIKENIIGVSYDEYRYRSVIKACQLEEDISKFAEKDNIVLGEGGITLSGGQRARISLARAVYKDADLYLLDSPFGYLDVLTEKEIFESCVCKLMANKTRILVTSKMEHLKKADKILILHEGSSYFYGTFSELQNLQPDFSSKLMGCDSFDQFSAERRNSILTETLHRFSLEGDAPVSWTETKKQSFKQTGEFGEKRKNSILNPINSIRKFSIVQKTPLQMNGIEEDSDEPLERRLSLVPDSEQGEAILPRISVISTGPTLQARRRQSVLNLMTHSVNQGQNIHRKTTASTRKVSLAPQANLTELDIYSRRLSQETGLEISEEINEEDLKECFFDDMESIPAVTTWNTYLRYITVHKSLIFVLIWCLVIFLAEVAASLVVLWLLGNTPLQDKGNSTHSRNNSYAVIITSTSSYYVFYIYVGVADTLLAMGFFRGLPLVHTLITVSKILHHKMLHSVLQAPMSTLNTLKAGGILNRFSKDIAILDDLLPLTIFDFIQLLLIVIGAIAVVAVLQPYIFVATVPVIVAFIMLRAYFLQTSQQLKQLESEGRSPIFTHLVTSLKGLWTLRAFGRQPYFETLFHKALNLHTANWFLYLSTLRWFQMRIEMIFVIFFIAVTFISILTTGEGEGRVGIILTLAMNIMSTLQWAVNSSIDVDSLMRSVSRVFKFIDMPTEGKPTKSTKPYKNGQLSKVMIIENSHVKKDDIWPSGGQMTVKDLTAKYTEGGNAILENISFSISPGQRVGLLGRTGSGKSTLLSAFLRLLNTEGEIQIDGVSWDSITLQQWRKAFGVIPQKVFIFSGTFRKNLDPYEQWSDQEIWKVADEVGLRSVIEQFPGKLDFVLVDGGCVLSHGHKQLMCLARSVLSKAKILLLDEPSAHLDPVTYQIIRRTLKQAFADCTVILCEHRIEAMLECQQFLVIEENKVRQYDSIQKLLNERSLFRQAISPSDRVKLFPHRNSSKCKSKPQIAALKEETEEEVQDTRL

Structure (SMILES): Cc1cccc(C)c1-c1cc2nc(n1)NS(=O)(=O)c1cccc(c1)C(=O)N1C(c3ncc(OC(C)C)cn3)CCCC(CC(C)C)C1CO2 (stereo not shown)
ring closure, isolated yield ([1]; from Cc1cccc(C)c1-c1cc(OCC2NC(c3ncc(OC(C)C)cn3)CCCC2CC(C)C)nc(NS(=O)(=O)c2cccc(C(=O)O)c2)n1, amide bond, CDMT/NMM, 14.3 mM, 48.0 h, 2 steps): 41%
ring closure, yield after HPLC ([2]; from Cc1cccc(C)c1-c1cc(OCC2NC(c3ncc(OC(C)C)cn3)CCCC2CC(C)C)nc(NS(=O)(=O)c2cccc(C(=O)O)c2)n1, amide bond, CDMT/NMM, 13.7 mM, 48.0 h, 2 steps): 12%

Structure (SMILES): Cc1cccc(C)c1-c1cc2nc(n1)NS(=O)(=O)c1cccc(c1)C(=O)N1CCN(Cc3ccccc3)CC(O2)C1CC(C)C (stereo not shown)
ring closure, isolated yield ([1]; from Cc1cccc(C)c1-c1cc(Cl)nc(NS(=O)(=O)c2cccc(C(=O)N3CCN(Cc4ccccc4)CC(O)C3CC(C)C)c2)n1, snar bond, NaH, 15.6 mM, 25.0 °C, 23.0 h): 21%
ring closure, yield after HPLC ([2]; from Cc1cccc(C)c1-c1cc(Cl)nc(NS(=O)(=O)c2cccc(C(=O)N3CCN(Cc4ccccc4)CC(O)C3CC(C)C)c2)n1, snar bond, NaH, 15.2 mM, 25.0 °C, 24.0 h): 11%

Ent. B Max Activity (%) [3]: ++ (++ is 30-60%)
EC50 [3]: < 1000 nM
Structure (SMILES): Cc1cccc(C)c1-c1cc2nc(n1)NS(=O)(=O)c1cccc(c1)C(=O)N1CCc3cc(C(C)(C)C)ccc3C1CO2 (single isomer, unassigned) [Compound 235, 8-tert-butyl-17-(2,6-dimethylphenyl)-14-oxa-21λ^6-thia-3,18,20,27-tetraazapentacyclo[20.3.1.115,19.03,12.06,11]heptacosa-1(26),6(11),7,9,15(27),16,18,22,24-nonaene-2,21,21-trione]
ring closure, isolated yield ([1]; from Cc1cccc(C)c1-c1cc(OCC2NCCc3cc(C(C)(C)C)ccc32)nc(NS(=O)(=O)c2cccc(C(=O)O)c2)n1, amide bond, HATU/Et3N, 16.5 mM, 25.0 °C, 16.0 h): 34%

Ent. A Max Activity (%) [4]: +++ (+++ is >600%)
EC50 [4]: < 1000 nM
Structure (SMILES): Cc1cccc(C)c1-c1cc2nc(n1)NS(=O)(=O)c1cccc(c1)C(=O)N1CCN(C(=O)OC(C)(C)C)[C@H](CC(C)C)[C@H](C1)O2 [Compound 114, tert-Butyl (16S,17R)-12-(2,6-dimethylphenyl)-17-(2-methylpropyl)-2,8,8-trioxo-15-oxa-8λ^6-thia-1,9,11,18,22-pentaazatetracyclo[14.4.1.13,7.110,14]tricosa-3(23),4,6,10(22),11,13-hexaene-18-carboxylate]
ring closure, isolated yield ([1]; from Cc1cccc(C)c1-c1cc(Cl)nc(NS(=O)(=O)c2cccc(C(=O)N3CCN(C(=O)OC(C)(C)C)[C@H](CC(C)C)[C@@H](O)C3)c2)n1, snar bond, NaH, 30.9 mM, 1.67 h): 34%

Ent. A Max Activity (%) [4]: ++ (++ is 30-60%)
EC50 [4]: < 1000 nM
Structure (SMILES): Cc1cccc(C)c1-c1cc2nc(n1)NS(=O)(=O)c1cccc(c1)C(=O)N1CCN(C(=O)OC(C)(C)C)[C@H](CC(C)C)[C@@H](C1)O2 [Compound 115, tert-Butyl (16R,17R)-12-(2,6-dimethylphenyl)-17-(2-methylpropyl)-2,8,8-trioxo-15-oxa-8λ^6-thia-1,9,11,18,22-pentaazatetracyclo[14.4.1.13,7.110,14]tricosa-3(23),4,6,10(22),11,13-hexaene-18-carboxylate]
ring closure, isolated yield ([1]; from Cc1cccc(C)c1-c1cc(Cl)nc(NS(=O)(=O)c2cccc(C(=O)N3CCN(C(=O)OC(C)(C)C)[C@H](CC(C)C)[C@H](O)C3)c2)n1, snar bond, NaH, 31.6 mM, 1.67 h): 67%

Ent. A Max Activity (%) [4]: ++ (++ is 30-60%)
EC50 [4]: < 1000 nM
Structure (SMILES): Cc1cccc(C)c1-c1cc2nc(n1)NS(=O)(=O)c1cccc(c1)C(=O)N1CCN(C(=O)OC(C)(C)C)[C@@H](CC(C)C)[C@@H](C1)O2 [Compound 116, tert-Butyl (16R,17S)-12-(2,6-dimethylphenyl)-17-(2-methylpropyl)-2,8,8-trioxo-15-oxa-8λ^6-thia-1,9,11,18,22-pentaazatetracyclo[14.4.1.13,7.110,14]tricosa-3(23),4,6,10(22),11,13-hexaene-18-carboxylate]
ring closure, isolated yield ([1]; from Cc1cccc(C)c1-c1cc(Cl)nc(NS(=O)(=O)c2cccc(C(=O)N3CCN(C(=O)OC(C)(C)C)[C@@H](CC(C)C)[C@H](O)C3)c2)n1, snar bond, NaH, 31.0 mM, 5.17 h): 36%

Ent. A Max Activity (%) [4]: +++ (+++ is >600%)
EC50 [4]: < 1000 nM
Structure (SMILES): Cc1cccc(C)c1-c1cc2nc(n1)NS(=O)(=O)c1cccc(c1)C(=O)N1C[C@@H](CN(C(=O)OC(C)(C)C)C[C@H]1C(C)C)O2 [Compound 124, tert-Butyl (16S,20R)-12-(2,6-dimethylphenyl)-2,8,8-trioxo-20-(propan-2-yl)-15-oxa-8λ^6-thia-1,9,11,18,22-pentaazatetracyclo[14.4.1.13,7.110,14]tricosa-3(23),4,6,10(22),11,13-hexaene-18-carboxylate]
ring closure, isolated yield ([1]; from Cc1cccc(C)c1-c1cc(Cl)nc(NS(=O)(=O)c2cccc(C(=O)N3C[C@H](O)CN(C(=O)OC(C)(C)C)C[C@H]3C(C)C)c2)n1, snar bond, NaH, 30.5 mM, 3.17 h): 35%

Ent. A Max Activity (%) [4]: ++ (++ is 30-60%)
EC50 [4]: < 1000 nM
Structure (SMILES): Cc1cccc(C)c1-c1cc2nc(n1)NS(=O)(=O)c1cccc(c1)C(=O)N1C[C@@H](CN(C(=O)OC(C)(C)C)C[C@@H]1CCC(C)C)O2 [Compound 129, tert-Butyl (16S,20S)-12-(2,6-dimethylphenyl)-20-(3-methylbutyl)-2,8,8-trioxo-15-oxa-8λ^6-thia-1,9,11,18,22-pentaazatetracyclo[14.4.1.13,7.110,14]tricosa-3(23),4,6,10(22),11,13-hexaene-18-carboxylate]
ring closure, isolated yield ([1]; from Cc1cccc(C)c1-c1cc(Cl)nc(NS(=O)(=O)c2cccc(C(=O)N3C[C@H](O)CN(C(=O)OC(C)(C)C)C[C@@H]3CCC(C)C)c2)n1, snar bond, NaH, 29.8 mM, 3.67 h): 53%

Ent. A Max Activity (%) [4]: ++ (++ is 30-60%)
EC50 [4]: < 1000 nM
Structure (SMILES): Cc1cccc(C)c1-c1cc2nc(n1)NS(=O)(=O)c1cccc(c1)C(=O)N1C[C@@H](CN(C(=O)OC(C)(C)C)C[C@@H]1C(C)C)O2 [Compound 132, tert-Butyl (16S,20S)-12-(2,6-dimethylphenyl)-2,8,8-trioxo-20-(propan-2-yl)-15-oxa-8λ^6-thia-1,9,11,18,22-pentaazatetracyclo[14.4.1.13,7.110,14]tricosa-3(23),4,6,10(22),11,13-hexaene-18-carboxylate]
ring closure, isolated yield ([1]; from Cc1cccc(C)c1-c1cc(Cl)nc(NS(=O)(=O)c2cccc(C(=O)N3C[C@H](O)CN(C(=O)OC(C)(C)C)C[C@@H]3C(C)C)c2)n1, snar bond, NaH, 29.4 mM, 3.17 h): 46%

Ent. A Max Activity (%) [4]: ++ (++ is 30-60%)
EC50 [4]: < 1000 nM
Structure (SMILES): Cc1cccc(C)c1-c1cc2nc(n1)NS(=O)(=O)c1cccc(c1)C(=O)N1C[C@@H](CN(C(=O)OC(C)(C)C)C[C@@H]1CC(C)(C)C)O2 [Compound 134, tert-Butyl (16S,20S)-12-(2,6-dimethylphenyl)-20-(2,2-dimethylpropyl)-2,8,8-trioxo-15-oxa-8λ^6-thia-1,9,11,18,22-pentaazatetracyclo[14.4.1.13,7.110,14]tricosa-3(23),4,6,10(22),11,13-hexaene-18-carboxylate]
ring closure, isolated yield ([1]; from Cc1cccc(C)c1-c1cc(O[C@H]2CN[C@@H](CC(C)(C)C)CN(C(=O)OC(C)(C)C)C2)nc(NS(=O)(=O)c2cccc(C(=O)O)c2)n1, amide bond, HATU/DIEA, 29.2 mM, 25.0 °C, 0.33 h): 57%

Ent. A Max Activity (%) [4]: +++ (+++ is >600%)
EC50 [4]: < 1000 nM
Structure (SMILES): Cc1cccc(C)c1-c1cc2nc(n1)NS(=O)(=O)c1cccc(c1)C(=O)N1CC3CN(Cc4ccccc4)CC3(C1)O2 (stereo not shown) [Compound 210, 20-Benzyl-5-(2,6-dimethylphenyl)-2-oxa-9λ^6-thia-6,8,16,20,24-pentaazapentacyclo[14.5.1.13,7.110,14.01,18]tetracosa-3(24),4,6,10,12,14(23)-hexaene-9,9,15-trione]
ring closure, isolated yield ([1]; from Cc1cccc(C)c1-c1cc(Cl)nc(NS(=O)(=O)c2cccc(C(=O)N3CC4CN(Cc5ccccc5)CC4(O)C3)c2)n1, snar bond, NaH, 33.1 mM, 25.0 °C, 24.0 h): 26%

Ent. B Max Activity (%) [3]: +++ (+++ is >600%)
EC50 [3]: < 1000 nM
Structure (SMILES): Cc1cccc(C)c1-c1cc2nc(n1)NS(=O)(=O)c1cccc(c1)C(=O)N1C[C@@H](CCC1CC(C)C)O2 (stereo partly drawn) [Compound 234, (3R)-18-(2,6-Dimethylphenyl)-6-(2-methylpropyl)-2-oxa-14λ^6-thia-7,15,17,20-tetraazatetracyclo[14.3.1.13,7.19,13]docosa-1(20),9(21),10,12,16,18-hexaene-8,14,14-trione]
ring closure, isolated yield ([1]; from Cc1cccc(C)c1-c1cc(Cl)nc(NS(=O)(=O)c2cccc(C(=O)N3C[C@H](O)CCC3CC(C)C)c2)n1, snar bond, NaH, 11.6 mM, 25.0 °C, 16.0 h): 38%
